Read-outs that look alike come from different tables or passages of the source.

Assay [1] deals with Corynespora cassiicola. Briefly: Corynespora cassiicola test (tomato), preventive glasshouse spray test. The assay is classed as in vivo. The settings on record: single compound.
Assay [2] concerns Pyricularia oryzae. Briefly: whole plant or invertebrate. Type of assay: in vivo. As to conditions: for Observed Efficacy (%): preventive spray on rice plants.
Assay [3] concerns Phakopsora pachyrhizi. Briefly: Phakopsora pachyrhizi test (soybean), preventive glasshouse spray test. Type of assay: in vivo. As to conditions: for pest or weed control at 0.05 ppm / pest or weed control at 0.0001 ppm / pest or weed control at 0.001 ppm / pest or weed control at 0.01 ppm / pest or weed control at 0.1 ppm: Phakopsora pachyrhizi, read-out: Observed Efficacy (%).
The test system of assay [4] is Phytopthora infestans. Type of assay: in vivo. As to conditions: single compound, tomato, preventive spray.
The test system of assay [5] is Erysiphe cichoracearum. Briefly: Erysiphe cichoracearum test (cucumber), preventive glasshouse spray test. The settings on record: preventive spray on cucumber plants.
For assay [6], the system named is Septoria nodorum. Briefly: Parastagonospora nodorum/Septoria nodorum/Stagnospora nodorum test (wheat), preventive glasshouse spray test. Type of assay: in vivo. The settings on record: preventive spray on wheat plants.
For assay [7], the system named is Alternaria solani. Briefly: Alternaria solani test (tomato plants), preventive glasshouse spray test. The settings on record: for pest or weed control at 1 ppm / pest or weed control at 5 ppm / pest or weed control at 10 ppm: Alternaria solani, in Solanum lycopersicum, read-out: Observed Efficacy (%).
The test system of assay [8] is Botrytis cinerea. Briefly: Botrytis cinerea test (tomato), preventive glasshouse spray test. Type of assay: in vivo.
The subject of assay [9] is Pseudoperonospora cubensis. Briefly: Pseudoperonospora cubensis test (cucumber), preventive glasshouse spray test. Type of assay: in vivo. The text has this:
The test solutions were poured into the spray bottles for further applications.

The mark [10] stands for this setting: Table D1, single compound, 0.05 ppm, soybean, preventive spray.
[11] abbreviates: Pyricularia oryzae, read-out: Observed Efficacy (%).
Setting [12] is: Table G1, single compound, 0.1 ppm.
[13] abbreviates: Table G1, single compound, 0.05 ppm.
[14] abbreviates: single compound, Conc. 0.05 ppm.
Where [15] appears, read: Table D3, single compound, 0.05 ppm, soybean, preventive spray.
[16] abbreviates: Table D3, single compound, 0.1 ppm, soybean, preventive spray.

Regarding `Cn1cc(C(=O)Nc2cccc3c2[C@@H]2CC[C@H]3C2=C(Cl)Cl)c(C(F)F)n1` (racemic) [Benzovindiflupyr, benzovindiflupyr], the “Observed Efficacy (%)” value in assay [1] (Conc. 0.05 ppm) was determined as 18%.
Consider `CO/C=C(/C(=O)OC)c1ccccc1Oc1cc(Oc2ccccc2C#N)ncn1` [Azoxystrobin, azoxystrobin, reference compound], for which, in assay [2] (single compound at 0.1 ppm), the “Observed Efficacy (%)” value is given as 26%.
As for `O=C(Nc1ccccc1-c1ccc(Cl)cc1)c1cccnc1Cl` [Boscalid, boscalid, reference compound], in assay [3] (setting [10]), the pest or weed control at 0.05 ppm amounted to 27%. The “Observed Efficacy (%)” value in assay [4] (Conc. 0.1 ppm) is 11%.
For `O=C(COc1ccc(F)cc1)c1ccc(-c2noc(C(F)(F)F)n2)cc1` [Compound (I-2), 2-(4-fluorophenoxy)-1-(4-(5-(trifluoromethyl)-1,2,4-oxadiazol-3-yl)phenyl)ethan-1-one], the “Observed Efficacy (%)” value in assay [5] (single compound at 1 ppm) is listed as 13%; in [6] (single compound at 1 ppm), 17%; in [6] (single compound at 5 ppm), 20%; in assay [6] (single compound at 10 ppm), 43%; in [8] (Table F1, single compound, 1 ppm, tomato, preventive spray), 20%; in assay [8] (Table F1, single compound, 5 ppm, tomato, preventive spray), 27%. The “Observed Efficacy (%)” value in [8] (Table F1, single compound, 10 ppm, tomato, preventive spray) stood at 47%. Besides, in assay [3] (Table D1, single compound, 0.0001 ppm, soybean, preventive spray), the pest or weed control at 0.0001 ppm came out at 40%. Further, the pest or weed control at 0.001 ppm in assay [3] (Table D1, single compound, 0.001 ppm, soybean, preventive spray) came to 50%. Also, the pest or weed control at 0.01 ppm in assay [3] (Table D1, single compound, soybean, preventive spray) amounted to 62%. The pest or weed control at 1 ppm in assay [7] was 34%; in [2] (setting [11]) it was 17%. The pest or weed control at 5 ppm in [7] stood at 42%. For the same compound, the pest or weed control at 10 ppm is 47% in [7] and 37% in assay [2] (setting [11]).
As to `O=C(COc1ccc(F)nc1)c1ccc(-c2noc(C(F)(F)F)n2)cc1` [Compound (I-3), 2-((6-fluoropyridin-3-yl)oxy)-1-(4-(5-(trifluoromethyl)-1,2,4-oxadiazol-3-yl)phenyl)ethan-1-one], the “Observed Efficacy (%)” value in assay [5] (single compound at 1 ppm) amounted to 35%; in [5] (single compound at 5 ppm), 37%; in assay [5] (single compound at 10 ppm), 39%; in [9] (setting [12]), 36%; in [9] (Table G1, single compound, 1 ppm) it was 32%; in assay [9] (Table G1, single compound, 10 ppm), 34%. Moreover, the “Observed Efficacy (%)” value was 20% in assay [8] (single compound at 10 ppm, preventive spray on tomato plants); 36% in [1] (Conc. 5 ppm); 45% in assay [1] (Conc. 10 ppm). For the same compound, the pest or weed control at 0.0001 ppm in assay [3] (single compound at 0.0001 ppm, preventive spray on soybean plants) was 43%. Besides, the pest or weed control at 0.001 ppm in assay [3] (single compound at 0.001 ppm, preventive spray on soybean plants) amounted to 50%. Moreover, in assay [7], the pest or weed control at 1 ppm was 35%. In addition, the pest or weed control at 5 ppm in [7] was determined as 40%. The pest or weed control at 10 ppm was 47% in assay [7] and 42% in assay [2] (setting [11]).
In the case of `O=C(CNc1ccc(F)cc1)c1ccc(-c2noc(C(F)(F)F)n2)cc1` [Compound (I-8), 2-((4-fluorophenyl)amino)-1-(4-(5-(trifluoromethyl)-1,2,4-oxadiazol-3-yl)phenyl)ethan-1-one], the “Observed Efficacy (%)” value in [5] (single compound at 1 ppm) was found to be 19%; in [5] (single compound at 5 ppm), 25%; in assay [5] (single compound at 10 ppm) it was 31%; in assay [9] (single compound, Conc. 1 ppm) it was 17%; in assay [9] (single compound, Conc. 5 ppm) it was 19%; in [9] (single compound, Conc. 10 ppm), 28%. Moreover, the “Observed Efficacy (%)” value came out at 32% in assay [4] (Conc. 1 ppm) and 42% in assay [4] (Conc. 5 ppm). Moreover, the pest or weed control at 0.0001 ppm in assay [3] (Table D3, single compound, 0.0001 ppm, soybean, preventive spray) came out at 37%. Further, the pest or weed control at 0.001 ppm in [3] (Table D3, single compound, 0.001 ppm, soybean, preventive spray) is 47%. Moreover, the pest or weed control at 0.01 ppm in [3] (Table D3, single compound, soybean, preventive spray) is 60%. The pest or weed control at 1 ppm was determined as 26% in assay [7] and 17% in assay [2] (setting [11]). Further, the pest or weed control at 5 ppm in [7] was determined as 37%; in [2] (setting [11]) it was 22%. The pest or weed control at 10 ppm came to 47% in assay [7] and 31% in assay [2] (setting [11]).
For `N#Cc1sc2c(=O)c3ccccc3c(=O)c=2sc1C#N` [Dithianon, dithianon], the “Observed Efficacy (%)” value in [6] (single compound at 0.1 ppm) is 16%.
On to `O=[N+]([O-])c1cc(C(F)(F)F)c(Cl)c([N+](=O)[O-])c1Nc1ncc(C(F)(F)F)cc1Cl` [Fluazinam, fluazinam], for which the results for the “Observed Efficacy (%)” value in assay [6] (single compound at 0.1 ppm) and in assay [1] (Conc. 0.1 ppm) were 21% and 12%, respectively.
For `CC1CC(C)(C)c2c(F)ccc(NC(=O)c3cn(C)nc3C(F)F)c21` (centres unmarked) [Fluindapyr, fluindapyr, reference compound], the “Observed Efficacy (%)” value in assay [9] (setting [13]) turned out to be 35%; in assay [2] (single compound at 0.05 ppm), 11%.
In the case of `O=C(NCCc1ncc(C(F)(F)F)cc1Cl)c1ccccc1C(F)(F)F` [Fluopyram, fluopyram], the “Observed Efficacy (%)” value in assay [6] (single compound at 0.05 ppm) came out at 8%; in assay [6] (single compound at 0.1 ppm), 21%; in assay [9] (setting [13]), 2%; in assay [9] (setting [12]), 12%; in assay [9] (setting [14]), 2%; in [9] (single compound, Conc. 0.1 ppm), 12%.
Regarding `O=C1c2ccccc2C(=O)N1SC(Cl)(Cl)Cl` [Folpet, folpet, reference compound], the “Observed Efficacy (%)” value in [8] (Table F1, single compound, 0.1 ppm, tomato, preventive spray) worked out at 38%; in assay [4] (Conc. 0.1 ppm), 11%.
For the compound `CC1CC(C)(C)c2c(F)ccc(NC(=O)c3cn(C)nc3C(F)F)c21` (centres unmarked) [Inpyrfluxam, inpyrfluxam], the “Observed Efficacy (%)” value came out at 18% in assay [3] (setting [10]); 12% in [6] (single compound at 0.05 ppm); 23% in assay [7] (single compound at 0.1 ppm, preventive spray on tomato plants); 16% in [1] (Conc. 0.05 ppm).
On to `CC(O)(Cn1cncn1)c1ccc(Oc2ccc(Cl)cc2)cc1C(F)(F)F` (centres unmarked) [Mefentrifluconazole, mefentrifluconazole], for which the “Observed Efficacy (%)” value in assay [3] (setting [15]) is listed as 32%; in [3] (setting [16]), 44%.
Turning to `CNC(=O)/C(=N/OC)c1ccccc1Oc1ccccc1` [Metominostrobin, metominostrobin], the results for the “Observed Efficacy (%)” value in [6] (single compound at 0.05 ppm) and in assay [6] (single compound at 0.1 ppm) were 6% and 12%, respectively.
With `OC(Cc1ccccc1Cl)(Cn1nc[nH]c1=S)C1(Cl)CC1` (centres unmarked) [Prothioconazole, prothioconazole], in [3] (Table D1, single compound, 0.1 ppm, soybean, preventive spray), the pest or weed control at 0.1 ppm was determined as 48%. Also, the “Observed Efficacy (%)” value was 48% in [3] (setting [16]) and 45% in assay [9] (single compound, Conc. 0.1 ppm).
As to `COC(=O)N(OC)c1ccccc1COc1ccn(-c2ccc(Cl)cc2)n1` [Pyraclostrobin, pyraclostrobin], the pest or weed control at 0.05 ppm in assay [3] (setting [15]) is 37%. The pest or weed control at 0.1 ppm in [3] (setting [16]) was 46%.
In the case of mancozeb, the “Observed Efficacy (%)” value is on record as 2% in assay [9] (setting [13]); 5% in assay [9] (setting [12]); 2% in [9] (setting [14]); 5% in assay [9] (single compound, Conc. 0.1 ppm); 10% in assay [1] (Conc. 0.05 ppm).
Turning to metiram [reference compound], the “Observed Efficacy (%)” value in [2] (single compound at 0.1 ppm) is on record as 18%.

Source of the values: US12690591B2, “Fungicidal composition containing oxadiazole compounds” (PI INDUSTRIES LIMITED, priority 2021, dated 2026).
